Laboratory results reported in patent publication US6737383B1, “Herbicidal oxadiazolidines” (priority 1999, dated 2004).

How the values were obtained:
[1] = system: maize hybrid P33G26; assay: Test G maize injury with safener-treated seed; conditions: absence of any safener; rates ranging from 140 to 1120 g/ha
In short: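 Maize hybrid P33G26 seed, treated with dichlormid, fenchlorazole-ethyl or naphthalic anhydride or left untreated, was sown in soil pots, then sprayed pre-emergence with several compound rates at 310 L/ha. Plants grew in a greenhouse (14 h day, about 27/24 °C day/night), with 4–5 replicates. Injury was scored visually against untreated controls 28 days after application.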

[2] = system: corn; assay: Test C postemergence corn; format: in vivo, Zea mays; conditions: 0 to 100 scale, 0 no effect, 100 complete control
In short: (§1)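 Compounds in a non-phytotoxic solvent with surfactant were sprayed postemergence on greenhouse-grown plants in 60:40 sandy loam/potting mix. After about 14 to 21 days, visual ratings against untreated controls on a 0 (no effect) to 100 (complete control) scale.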

[3] = system: large crabgrass; assay: Test C postemergence large crabgrass; format: in vivo, Digitaria sanguinalis; conditions: 0 to 100 scale, 0 no effect, 100 complete control
Method: (§2) Compounds evaluated in this test were formulated in a non-phytotoxic solvent mixture which included a surfactant and applied to plants that were grown for various periods of time before treatment (postemergence application). A mixture of sandy loam soil and greenhouse potting mix in a 60:40 ratio was used for the postemergence test.
(§3) Plantings of these crops and weed species were adjusted to produce plants of appropriate size for the postemergence test. All plant species were grown using normal greenhouse practices. Crop and weed species include arrowleaf sida (Sida rhombifolia), barnyardgrass (Echinochloa crus-galli), cocklebur (Xanthium strumarium), common ragweed (Ambrosia elatior), corn (Zea mays), cotton (Gossypium hirsutum), eastern black nightshade (Solanum ptycanthum), fall panicum (Panicum dichotomiflorum), field bindweed (Convolvulus arvensis), giant foxtail (Setaria faberii), hairy beggarticks (Bidens pilosa), ivyleaf morningglory (Ipomoea hederacea), johnsongrass (Sorghum halepense), ladysthumb smartweed (Polygonum persicaria), lambsquarters (Chenopodium album), large crabgrass (Digitaria sanguinalis), purple nutsedge (Cyperus rotundus), redroot pigweed (Amaranthus retroflexus), soybean (Glycine max), surinam grass (Brachiaria decumbens), velvetleaf (Abutilon theophrasti) and wild poinsettia (Euphorbia heterophylla).
(§4) Treated plants and untreated controls were maintained in a greenhouse for approximately 14, to 21 days, after which all treated plants were compared to untreated controls and visually evaluated. Plant response ratings, summarized in Table C, were based upon a 0 to 100 scale where 0 was no effect and 100 was complete control. A dash response (−) means no test result.

[4] = system: ladysthumb smartweed; assay: Test C postemergence ladysthumb smartweed; format: in vivo, Polygonum persicaria; conditions: 0 to 100 scale, 0 no effect, 100 complete control
Method: as §2, §3, §4

[5] = system: lambsquarters; assay: Test C postemergence lambsquarters; format: in vivo, Chenopodium album; conditions: 0 to 100 scale, 0 no effect, 100 complete control
Method: as §2, §3, §4

[6] = system: purple nutsedge; assay: Test C postemergence purple nutsedge; format: in vivo, Cyperus rotundus; conditions: 0 to 100 scale, 0 no effect, 100 complete control
Method: as §2, §3, §4

[7] = system: Green foxtail; assay: Test D green foxtail; format: in vivo
Text: Seeds, tubers, or plant parts of Alexandergrass (Brachiaria plantaginea), bermuda-grass (Cynodon dactylon), common pursiane (Portulaca oleracea), common ragweed (Ambrosia elatior), common groundsel (Senecio vulgaris), dallisgrass (Paspalum dilatatum), goosegrass (Eleusine indica), guineagrass (Panicum maximum), itchgrass (Rottboellia exaltata), Johnson grass (Sorghum halepense), large crabgrass (Digitaria sanguinalis), pitted morningglory (Ipomoea lacunosa), purple nutsedge (Cyperus rotundus), sandbur (Cenchrus echinatus), sourgrass (Trichachne insularis), Spanishneedles (Bidens bipinnata), surinam grass (Brachiaria decumbens) and tall mallow (Malva sylvestris) were planted into greenhouse pots of flats containing greenhouse planting medium. Plant species were grown in separate pots or individual compartments. Preemergence applications were made within one day of planting the seed or plant part.
Test chemicals were formulated in a non-phytotoxic solvent mixture which included a surfactant and applied preemergence to the surface of the pot containing seeds in a sandy loam soil. Untreated control pots and treated pots were placed in the greenhouse for growth and visually evaluated for injury 14 to 21 days after herbicide application. Plant response ratings, summarized in Table C, are based on a 0 to 100 scale where 0 is no injury and 100 is complete control. A dash (−) response means no test result.

[8] = system: eastern black nightshade; assay: Test C postemergence eastern black nightshade; format: in vivo, Solanum ptycanthum; conditions: 0 to 100 scale, 0 no effect, 100 complete control
Method: as §2, §3, §4

[9] = system: ivyleaf morningglory; assay: Test C postemergence ivyleaf morningglory; format: in vivo, Ipomoea hederacea; conditions: 0 to 100 scale, 0 no effect, 100 complete control
Method: as §2, §3, §4

[10] = system: common ragweed; assay: Test C postemergence common ragweed; format: in vivo, Ambrosia elatior; conditions: 0 to 100 scale, 0 no effect, 100 complete control
Method: as §2, §3, §4

[11] = system: barnyardgrass; assay: Test C postemergence barnyardgrass; format: in vivo, Echinochloa crus-galli; conditions: 0 to 100 scale, 0 no effect, 100 complete control
In short: as §1

[12] = system: velvetleaf; assay: Test C postemergence velvetleaf; format: in vivo, Abutilon theophrasti; conditions: 0 to 100 scale, 0 no effect, 100 complete control
In short: as §1

[13] = system: fall panicum; assay: Test C postemergence fall panicum; format: in vivo, Panicum dichotomiflorum; conditions: 0 to 100 scale, 0 no effect, 100 complete control
In short: as §1

[14] = Rate 64 g/ha, Preemergence; 0 to 100 scale, 0 no injury, 100 complete control
[15] = Rate 125 g/ha, Preemergence; 0 to 100 scale, 0 no injury, 100 complete control

## CC(C)N(C(=O)n1oc(=O)n(-c2ccccc2OC(F)(F)F)c1=O)c1ccc(F)cc1 [Compound 14]
[1]
  Injury to maize: severely injurious to maize

## CC(C)N(C(=O)n1oc(=O)n(C(C)C)c1=O)c1ccccc1 [Compound 113]
[2]; Rate 140 g/ha
  Plant response rating, Corn: 0
[2]; Rate 280 g/ha
  Plant response rating, Corn: 40
[2]; Rate 560 g/ha
  Plant response rating, Corn: 45
[2]; Rate 1120 g/ha
  Plant response rating, Corn: 60
[3]; Rate 140 g/ha
  Plant response rating, Large crabgrass: 0
[3]; Rate 280 g/ha
  Plant response rating, Large crabgrass: 85
[3]; Rate 560 g/ha
  Plant response rating, Large crabgrass: 95
[3]; Rate 1120 g/ha
  Plant response rating, Large crabgrass: 95
[4]; Rate 140 g/ha
  Plant response rating Ladysthumb: 0
[4]; Rate 280 g/ha
  Plant response rating Ladysthumb: 0
[4]; Rate 560 g/ha
  Plant response rating Ladysthumb: 85
[4]; Rate 1120 g/ha
  Plant response rating Ladysthumb: 85
[5]; Rate 140 g/ha
  Plant response rating Lambsquarters: 0
[5]; Rate 560 g/ha
  Plant response rating Lambsquarters: 20
[5]; Rate 1120 g/ha
  Plant response rating Lambsquarters: 50
[6]; Rate 140 g/ha
  Plant response rating, Purple nutsedge: 0
[6]; Rate 280 g/ha
  Plant response rating, Purple nutsedge: 10
[6]; Rate 560 g/ha
  Plant response rating, Purple nutsedge: 0
[6]; Rate 1120 g/ha
  Plant response rating, Purple nutsedge: 10
[7]; Preemergence; Rate 16 g/ha; 0 to 100 scale, 0 no injury, 100 complete control
  Plant response rating, Green foxtail: 80
[7]; Preemergence; Rate 32 g/ha; 0 to 100 scale, 0 no injury, 100 complete control
  Plant response rating, Green foxtail: 98
[7]; Rate 16 g/ha; Preemergence; 0 to 100 scale, 0 no injury, 100 complete control
  Plant response rating, Green foxtail: 80
[7]; Rate 32 g/ha; Preemergence; 0 to 100 scale, 0 no injury, 100 complete control
  Plant response rating, Green foxtail: 70
[7]; [14]
  Green foxtail plant response rating: 100
  Plant response rating, Green foxtail: 100
[7]; [15]
  Green foxtail plant response rating: 100
  Plant response rating, Green foxtail: 100
[8]; Rate 140 g/ha
  Plant response rating E. blacknightsh: 50
[8]; Rate 280 g/ha
  Plant response rating E. blacknightsh: 50
[8]; Rate 1120 g/ha
  Plant response rating E. blacknightsh: 95
[9]; Rate 140 g/ha
  Plant response rating I. morningglory: 10
[9]; Rate 280 g/ha
  Plant response rating I. morningglory: 50
[9]; Rate 560 g/ha
  Plant response rating I. morningglory: 50
[9]; Rate 1120 g/ha
  Plant response rating I. morningglory: 50
[10]; Rate 140 g/ha
  Plant response rating Common ragweed: 5
[10]; Rate 280 g/ha
  Plant response rating Common ragweed: 5
[10]; Rate 1120 g/ha
  Plant response rating Common ragweed: 20
[11]; Rate 140 g/ha
  Plant response rating, Barnyardgrass: 80
[11]; Rate 280 g/ha
  Plant response rating, Barnyardgrass: 80
[11]; Rate 560 g/ha
  Plant response rating, Barnyardgrass: 85
[11]; Rate 1120 g/ha
  Plant response rating, Barnyardgrass: 95
[12]; Rate 140 g/ha
  Plant response rating, Velvetleaf: 0
[12]; Rate 280 g/ha
  Plant response rating, Velvetleaf: 0
[12]; Rate 560 g/ha
  Plant response rating, Velvetleaf: 60
[12]; Rate 1120 g/ha
  Plant response rating, Velvetleaf: 75
[13]; Rate 140 g/ha
  Plant response rating Fall panicum: 60
[13]; Rate 280 g/ha
  Plant response rating Fall panicum: 80
[13]; Rate 560 g/ha
  Plant response rating Fall panicum: 85
[13]; Rate 1120 g/ha
  Plant response rating Fall panicum: 85
